Data on 23 molecules can be found in patent publication US5420334A, “Inhibitors of farnesyl-protein transferase” (Merck & Co., Inc., priority 1994, dated 1995).

The term IC50 denotes the concentration at which inhibition is half-maximal.

The target of the first test is T1, bovine brain FPTase (Bos taurus, UniProt P29702+P49355).
T1 construct: Famesyl-protein transferase (FPTase) from bovine brain; from tissue; host or cells: bovine brain, partially purified (DEAE-Sephacel, N-octyl agarose, mono Q)
Description: In vitro inhibition of Ras farnesyl-protein transferase (FPTase). In kind it is biochemical. The following applies: Ras-CVLS, [3H]FPP, concentration giving 50% inhibition, read-out: IC50, inhibition of RAS farnesylation. The method, then:
The intrinsic famesyl-protein transferase (FPTase) activity of representative compounds of this invention was measured by the assay as described below:
Famesyl-protein transferase (FPTase) from bovine brain was chromatographed on DEAE-Sephacel (Pharmacia, 0-0.8M NaCl gradient elution), N-octyl agarose (Sigma, 0-0.6M NaCl gradient elution), and a mono Q HPLC column (Pharmacia, 0-0.3M NaCl gradient). Ras-CVLS (Cys-Val-Leu-Ser) at […], […] [^3 H]FPP, and the indicated compounds were incubated with this partially purified enzyme preparation. FPTase inhibition data is a measurement of the ability of the test compound to inhibit Ras farnesylation in vitro.
Famesyl-protein transferase (FPTase) from bovine brain was chromatographed on DEAE-Sephacel (Pharmacia, 0-0.8M NaCl gradient elution), N-octyl agarose (Sigma, 0-0.6M NaCl gradient elution), and a mono Q HPLC column (Pharmacia, 0-0.3M NaCl gradient). Ras-CVLS at 3.5 µM, 0.25 µM [3H]FPP, and the indicated compounds were incubated with either a partially purified bovine enzyme preparation or a recombinant human enzyme preparation. The FPTase data presented below in Table 1 reflects the ability of the test compound to inhibit RAS famesylation in vitro, as described in Pompliano, et al., Biochemistry 31, 3800 (1992).
*(IC50 is the concentration of the test compound which gives 50%
inhibition of bovine brain FPTase under the described assay conditions)
Regarding `C/C(=C\Cc1c(O)cc(C)c(C=O)c1O)CC[C@@]1(C)[C@H](C)C(=O)CC[C@@H]1C` [Compound 1, 3-[5-[1(R),2(S),6(S)-trimethyl-5-oxocyclohexyl]-3-methyl-2-pentenyl]-2,4-di hydroxy-6-methylbenzaldehyde], the IC50 stood at 0.7 µM.
With `CC(=O)O[C@@H]1CC(=O)[C@@H](C)[C@](C)(/C=C/C(C)=C/Cc2c(O)c(Cl)c(C)c(C=O)c2O)[C@H]1C` [Compound 2], the half-maximal inhibitory concentration (IC50) stood at 2.8 µM.
On to `CC(=O)O[C@@H]1CC(=O)[C@@H](C)[C@](C)(/C=C/C(C)=C/Cc2c(O)cc(C)c(C=O)c2O)[C@H]1C` [Compound 3], for which the IC50 was 5.6 µM.
Same read-out and setting: the figure for `CC(/C=C/[C@@]1(C)[C@H](C)C(=O)CC[C@@H]1C)=C\Cc1c(O)cc(C)c(C=O)c1O` [Compound 4] is 6.5 µM; for `CC(/C=C/[C@@]1(C)[C@H](C)C(=O)C=C[C@@H]1C)=C\Cc1c(O)c(Cl)c(C)c(C=O)c1O` [Compound 5] it is 15 µM; for `C/C(=C\Cc1c(O)cc(C)c(C=O)c1O)[C@H](C[C@@]1(C)[C@H](C)C(=O)CC[C@@H]1C)OC(=O)CC(C)C` [Compound 6, 3-[5-[1(R),2(S),6(S)-trimethyl-5-oxocyclohexyl]-3-methyl-4(S)-[3-methylbutanoyloxy]-2-pentenyl]-2,4-dihydroxy-6-methylbenzaldehyde] it is 4.6 µM.
Regarding `C/C(=C\Cc1c(O)c(Cl)c(C)c(C=O)c1O)[C@H](C[C@@]1(C)[C@H](C)C(=O)CC[C@@H]1C)OC(=O)CC(C)C` [Compound 7], the IC50 amounted to 6.5 µM.
For `CCC(=O)O[C@@H](C[C@@]1(C)[C@H](C)C(=O)CC[C@@H]1C)/C(C)=C/Cc1c(O)cc(C)c(C=O)c1O` [Compound 8], the IC50 was 2.2 µM.
In the case of `CC(=O)O[C@@H](C[C@@]1(C)[C@H](C)C(=O)CC[C@@H]1C)/C(C)=C/Cc1c(O)cc(C)c(C=O)c1O` [Compound 9], the IC50 is 13 µM.
In the case of `CC(=O)Oc1cc(C)c(C=O)c(OC(C)=O)c1C/C=C(\C)CC[C@@]1(C)[C@H](C)C(=O)CC[C@@H]1C` [Compound 11], the IC50 turned out to be 6.5 µM.
For the molecule `COc1cc(C)c(C=O)c(O)c1C/C=C(C)/C=C/[C@@]1(C)[C@H](C)C(=O)CC[C@@H]1C` [Compound 12], the IC50 amounted to 31 µM.
On to `COc1cc(C)c(C=O)c(O)c1C/C=C(\C)CC[C@@]1(C)[C@H](C)C(=O)CC[C@@H]1C` [Compound 13, 3-[5-[1(R),2(S),6(S)-trimethyl-5-oxocyclohexyl]-3-methyl-2-pentenyl]-2-hydroxy-4-methoxy-6-methylbenzaldehyde], for which the IC50 was determined as 2 µM.
Still for that read-out and setting: the figure for `Cc1cc(O)c(CCC(C)CC[C@@]2(C)[C@H](C)C(=O)CC[C@@H]2C)c(O)c1C` (some centres unmarked) [Compound 14] is 18.6 µM; for `C/C(=C\Cc1c(O)cc(C)c(CO)c1O)CC[C@@]1(C)[C@H](C)[C@H](O)CC[C@@H]1C` [Compound 15] it is 101 µM; for `C/C(=C\Cc1c(O)cc(C)c(C)c1O)CC[C@@]1(C)[C@H](C)C(=O)CC[C@@H]1C` [Compound 16] it is 30.7 µM.
In the case of `C/C(=C\Cc1c(O)cc(C)c(C)c1O)CC[C@@]1(C)[C@H](C)[C@H](O)CC[C@@H]1C` [Compound 17], the IC50 was more than 140 µM.
As to `C/C(=C\Cc1c(O)cc(C)c(CO)c1O)CC[C@@]1(C)[C@H](C)C(=O)CC[C@@H]1C` [Compound 18], the IC50 was 75 µM.
The same measure, in the same setting: the figure for `C/C(=C\Cc1c(O[Si](C)(C)C(C)(C)C)cc(C)c(C=O)c1O)CC[C@@]1(C)[C@H](C)C(=O)CC[C@@H]1C` [Compound 19] is more than 140 µM; for `COC(=O)c1c(C)cc(O)c(C/C=C(\C)CC[C@@]2(C)[C@H](C)C(=O)CC[C@@H]2C)c1O` [Compound 20] it is more than 140 µM.
Same read-out and setting: the figure for `COCOc1cc(C)c(C=O)c(OCOC)c1C/C=C(\C)CC[C@@]1(C)[C@H](C)C(=O)CC[C@@H]1C` [Compound 21] is more than 50 µM; for `C/C(=C\Cc1c(O)cc(C)cc1O)CC[C@@]1(C)[C@H](C)C(=O)CC[C@@H]1C` [Compound 24] it is 20 µM.

A further test has as its system Ras famesylation.
Test: not given
The following applies: cited from earlier work.
Consider `CC[C@H](C)C(=O)O[C@H]1CCC=C2C=C[C@H](C)[C@H](CC[C@@H]3C[C@@H](O)CC(=O)O3)[C@H]21` [compactin], for which the “Inhibition of Ras famesylation in vivo” value is “Inhibition of Ras famesylation in vivo has been demonstrated”.
Regarding `CC[C@H](C)C(=O)O[C@H]1C[C@@H](C)C=C2C=C[C@H](C)[C@H](CC[C@@H]3C[C@@H](O)CC(=O)O3)[C@H]21` [lovastatin], the “Inhibition of Ras famesylation in vivo” value was “Inhibition of Ras famesylation in vivo has been demonstrated”.
